From PMC2990756, “Quantitative High-Throughput Screening Identifies 8-Hydroxyquinolines as Cell-Active Histone Demethylase Inhibitors” (PLoS ONE, 2010)
Read-outs that look alike come from different tables or passages of the source.

Key:
JMJD2A [1] = biological target: T1, JMJD2A (Homo sapiens, UniProt O75164); experiment: Cellular demethylase assay: H3K9me3 immunofluorescence in HeLa cells overexpressing Flag-JMJD2A; settings: 24 hr
T1 sequence (O75164 1-1064): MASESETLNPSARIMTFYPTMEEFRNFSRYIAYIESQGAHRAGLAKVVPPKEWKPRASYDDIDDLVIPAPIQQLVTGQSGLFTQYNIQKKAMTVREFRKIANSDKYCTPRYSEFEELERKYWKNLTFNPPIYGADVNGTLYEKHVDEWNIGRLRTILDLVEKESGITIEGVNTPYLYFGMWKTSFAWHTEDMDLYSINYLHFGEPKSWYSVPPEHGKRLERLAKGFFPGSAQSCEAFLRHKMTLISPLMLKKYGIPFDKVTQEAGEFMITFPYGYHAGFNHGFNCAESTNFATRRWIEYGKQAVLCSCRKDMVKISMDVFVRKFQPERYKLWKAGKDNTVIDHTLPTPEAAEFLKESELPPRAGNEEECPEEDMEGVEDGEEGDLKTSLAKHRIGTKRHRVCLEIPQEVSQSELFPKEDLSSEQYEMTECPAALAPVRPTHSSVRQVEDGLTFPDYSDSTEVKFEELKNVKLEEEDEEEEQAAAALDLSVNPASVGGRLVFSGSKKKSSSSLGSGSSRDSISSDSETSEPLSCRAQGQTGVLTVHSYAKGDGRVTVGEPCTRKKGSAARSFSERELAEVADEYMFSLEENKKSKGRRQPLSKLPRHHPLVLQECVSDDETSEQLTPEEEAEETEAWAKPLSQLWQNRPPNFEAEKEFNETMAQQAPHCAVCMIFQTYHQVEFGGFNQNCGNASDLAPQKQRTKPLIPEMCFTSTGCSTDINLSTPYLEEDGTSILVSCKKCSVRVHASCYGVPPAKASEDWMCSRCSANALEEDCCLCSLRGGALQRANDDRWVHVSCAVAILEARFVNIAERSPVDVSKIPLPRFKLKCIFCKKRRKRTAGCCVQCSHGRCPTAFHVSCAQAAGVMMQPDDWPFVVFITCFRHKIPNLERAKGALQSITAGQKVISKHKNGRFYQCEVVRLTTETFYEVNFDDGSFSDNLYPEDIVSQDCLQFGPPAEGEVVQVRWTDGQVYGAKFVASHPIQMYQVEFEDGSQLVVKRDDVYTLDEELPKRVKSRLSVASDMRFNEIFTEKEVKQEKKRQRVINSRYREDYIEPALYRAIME
Text: Therefore, in order to automate this process a series of images were collected for each treatment on a standard epifluorescence microscope ( Figure 5A ) and then submitted to CellProfiler Software for analysis [29]. CellProfiler was configured to analyze the images for DAPI signal, a DNA stain, enabling the program to identify the location of individual cells and create a boundary that delineates the volume of the nuclear compartment. As not all cells in a given field are transfected, the Flag-JMJD2A-expressing cells were identified by quantifying the immunofluoresence signal resulting from the Flag antibody staining and using the mock transfected cells as a baseline for the signal intensity of non-transfected cells. Once the transfected cells were identified, the nuclear H3K9me3 immunofluorescence signal for each cell was quantified by CellProfiler. The levels of H3K9me3 staining intensity were analyzed in the DMSO vehicle treated or inhibitor treated samples. As a control and a means of determining maximal possible inhibition of demethylase activity, cells expressing the JMJD2A H188A catalytically deficient mutant were also quantified in each experiment. […] For each treatment a minimum of 400 transfected cells was analyzed and the final values of inhibition were derived from inhibition experiments carried out on three separate days (biological triplicates). […]

JMJD2A [2] = biological target: T2, JMJD2A (Homo sapiens, UniProt O75164); experiment: MALDI-TOF MS demethylation assay, JMJD2A
T2 sequence (O75164 1-359 limits assumed): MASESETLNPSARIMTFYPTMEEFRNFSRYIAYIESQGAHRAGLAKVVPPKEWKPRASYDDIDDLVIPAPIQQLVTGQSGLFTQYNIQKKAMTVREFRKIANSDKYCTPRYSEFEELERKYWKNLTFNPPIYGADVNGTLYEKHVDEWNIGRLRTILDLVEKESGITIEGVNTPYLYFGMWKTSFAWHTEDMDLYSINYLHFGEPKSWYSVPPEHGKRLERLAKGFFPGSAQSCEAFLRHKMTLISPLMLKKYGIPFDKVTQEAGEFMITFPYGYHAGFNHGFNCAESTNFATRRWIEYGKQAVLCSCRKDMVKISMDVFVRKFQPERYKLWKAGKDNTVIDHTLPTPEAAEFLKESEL
Experimental: (§1) JMJD2 assays were carried out as reported [13]. […] Initially, JMJD2, Fe(II), ascorbate and inhibitors were pre-incubated for 15 min prior to the addition of peptide and 2OG. The reaction was incubated for 30 min before 1∶1 quenching with methanol followed by addition of four volumes of 20 mM triammonium citrate. PHD2 and FIH assays were carried out as described [41], [42] with minor modifications. PHD2 assay consisted of PHD2 (1 µM), FAS (10 µM), SA (100 µM), 2OG (60 µM) and HIF-1α^556–574CODD peptide (50 µM), in 50 mM HEPES (pH 7.5) with varying concentrations of inhibitors (final DMSO concentration was 5%). Initially, PHD2, Fe(II), ascorbate and inhibitors were pre-incubated for 15 min prior to the addition of peptide and 2OG. The reaction was incubated for 30 min before 1∶1 quenching with 1% TFA followed by addition of three volumes of 20 mM triammonium citrate. FIH assay consisted of FIH (1 µM), FAS (10 µM), SA (100 µM), 2OG (100 µM) and HIF-1α^786–826CAD peptide (100 µM), in 50 mM HEPES (pH 7.5) with varying concentrations of inhibitors (final DMSO concentration was 5%). […] The diluted assay mixture (1 µL) from JMJD2 and PHD2 assays were mixed with 1 µL of α-cyano-4-hydroxycinnamic acid and 1 µL of FIH assay mixture was mixed with 1 µL of sinapinic acid matrix, and assessed by matrix-assisted laser desorption/ionization-time of flight (MALDI-TOF).

PHD2 (catalytic domain) = PHD2 (catalytic domain) (Homo sapiens, UniProt Q9GZT9); experiment: MALDI-TOF MS peptide hydroxylation assay, PHD2
Experimental: as §1

JMJD2E [3] = biological target: T3, JMJD2E (Homo sapiens, UniProt B2RXH2); experiment: MALDI-TOF MS demethylation assay, JMJD2E; settings: for MALDI-TOF Data: Span: span of the fitted curve
T3 sequence (B2RXH2 1-337): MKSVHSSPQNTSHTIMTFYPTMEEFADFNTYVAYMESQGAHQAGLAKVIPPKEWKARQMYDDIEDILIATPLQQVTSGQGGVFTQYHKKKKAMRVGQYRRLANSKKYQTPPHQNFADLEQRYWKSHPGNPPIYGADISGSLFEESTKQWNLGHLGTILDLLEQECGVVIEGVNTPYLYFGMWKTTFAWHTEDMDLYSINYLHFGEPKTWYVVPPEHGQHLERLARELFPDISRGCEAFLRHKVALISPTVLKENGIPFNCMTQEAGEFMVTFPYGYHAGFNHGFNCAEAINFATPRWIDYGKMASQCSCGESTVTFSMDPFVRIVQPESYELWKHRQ
Experimental: Initially, JMJD2, Fe(II), ascorbate and inhibitors were pre-incubated for 15 min prior to the addition of peptide and 2OG. The reaction was incubated for 30 min before 1∶1 quenching with methanol followed by addition of four volumes of 20 mM triammonium citrate. […] The diluted assay mixture (1 µL) from JMJD2 and PHD2 assays were mixed with 1 µL of α-cyano-4-hydroxycinnamic acid and 1 µL of FIH assay mixture was mixed with 1 µL of sinapinic acid matrix, and assessed by matrix-assisted laser desorption/ionization-time of flight (MALDI-TOF).

JMJD2E (KDM4E) = biological target: T4, JMJD2E (KDM4E) (Homo sapiens, UniProt B2RXH2); experiment: qHTS fluorescence FDH-coupled JMJD2E demethylase assay; assay type: biochemical
T4 construct: The catalytic domain of human JMJD2E (residues 1–337); His6 (N); made in house; host or cells: E. coli
T4 sequence (B2RXH2 1-337): T3 sequence (B2RXH2 1-337)

FIH = FIH (Homo sapiens, UniProt Q9NWT6); experiment: MALDI-TOF MS peptide hydroxylation assay, FIH
Experimental: as §1

[4] = Cytotoxicity, resazurin/resorufin (CellTiter-Blue); assay type: cell-based; settings: human, HeLa cells
Experimental: Cytotoxicity testing of the 5-carboxy-8HQ on HeLa cells was conducted with the resazurin/resorufin system for cellular metabolism.
Cytotoxicity testing was done with CellTiter-Blue (Promega) according to the manufacturer's directions.

[5] = biological target: T5, formaldehyde dehydrogenase (FDH) (Pseudomonas putida, UniProt P46154); experiment: FDH coupling enzyme counterscreen; assay type: biochemical; settings: Table S1, FDH counterscreen; for IC50: unit not in table, from Figure 2, read-out: qHTS Data: jmjd2e fdh IC50
T5 construct: purchased Sigma-Aldrich
Text: Dimethylsulfoxide certified ACS grade (DMSO) was from Fisher, Inc. HEPES buffer was obtained from Gibco. […] Black solid-bottom 1,536-well assay plates were from Greiner Bio-One (Monroe, NC).

JMJD2E [6] = biological target: T3, JMJD2E; experiment: JMJD2E FDH-coupled assay under low and high iron conditions (iron chelation profile); assay type: biochemical; set-up: The catalytic domain of human JMJD2E (residues 1–337); His6 (N); made in house; host or cells: E. coli; settings: Table S1; for IC50: unit not in table, from Figure 2
Experimental: The prioritized compounds were also evaluated in the screening assay using two different ferrous ion concentrations (termed high iron and low iron, respectively), in order to assess their propensity for iron chelation.
The ratio of IC50 values under high iron to low iron was calculated for each compound.

[7] = high iron, head says 20 µM FAS, read-out: qHTS Data: jmjd2e fas20um IC50
[8] = low iron 2.5 µM FAS, read-out: qHTS Data: jmjd2e fas2.5um IC50
[9] = Table S1, unit not in table, from Figure 2, read-out: qHTS Data: jmjd2e IC50
[10] = read-out: MALDI-TOF Data: IC50, Table S1, 2 µM JMJD2E, unit not in table, ~ values are poorly fitted

T5 sequence (P46154 whole entry): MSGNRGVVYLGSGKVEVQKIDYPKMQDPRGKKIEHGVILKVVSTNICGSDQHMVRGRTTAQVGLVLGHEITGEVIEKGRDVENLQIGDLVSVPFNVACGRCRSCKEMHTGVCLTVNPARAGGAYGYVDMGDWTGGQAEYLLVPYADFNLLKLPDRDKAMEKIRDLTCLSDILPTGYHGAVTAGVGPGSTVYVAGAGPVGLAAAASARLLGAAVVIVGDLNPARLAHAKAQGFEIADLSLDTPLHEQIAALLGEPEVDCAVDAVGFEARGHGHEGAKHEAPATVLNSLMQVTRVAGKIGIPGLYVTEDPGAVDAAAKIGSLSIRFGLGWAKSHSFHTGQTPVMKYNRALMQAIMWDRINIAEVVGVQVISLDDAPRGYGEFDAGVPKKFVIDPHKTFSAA
Chain of FIH (Q9NWT6 whole entry): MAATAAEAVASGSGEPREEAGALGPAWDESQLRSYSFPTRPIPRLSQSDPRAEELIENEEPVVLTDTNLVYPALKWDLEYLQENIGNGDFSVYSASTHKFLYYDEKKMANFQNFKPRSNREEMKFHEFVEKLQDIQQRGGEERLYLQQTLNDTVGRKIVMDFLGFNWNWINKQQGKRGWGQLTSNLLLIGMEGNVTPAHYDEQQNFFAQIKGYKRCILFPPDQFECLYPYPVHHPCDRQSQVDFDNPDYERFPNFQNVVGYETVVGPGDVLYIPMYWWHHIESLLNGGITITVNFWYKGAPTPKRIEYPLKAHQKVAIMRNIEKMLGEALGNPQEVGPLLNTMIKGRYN
Chain of PHD2 (catalytic domain) (Q9GZT9 181-426 limits assumed): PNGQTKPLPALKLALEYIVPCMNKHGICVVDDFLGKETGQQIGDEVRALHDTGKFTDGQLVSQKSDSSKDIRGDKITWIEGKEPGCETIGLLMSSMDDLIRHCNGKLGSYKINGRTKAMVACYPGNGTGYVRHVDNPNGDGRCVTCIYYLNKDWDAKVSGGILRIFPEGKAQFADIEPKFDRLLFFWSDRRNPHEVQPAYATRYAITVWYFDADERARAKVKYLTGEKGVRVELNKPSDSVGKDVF

SMILES	qHTS Data: jmjd2e fdh CurveClass [5]	MALDI-TOF Data: Span (JMJD2E [3]; Table S1, 2 µM JMJD2E)	IC50 (JMJD2E [6]; [7]) [µM]	IC50 (JMJD2E [6]; [8]) [µM]	IC50 (JMJD2E (KDM4E); [9]) [µM]	IC50 (JMJD2E [3]; [10]) [µM]	other results
COC(=O)CNC(=O)C(=O)OC [DMOG, dimethyloxalylglycine]							JMJD2A demethylase activity remaining (JMJD2A [1]; 2.5mM treatment): approximately 20%
Oc1ccc(CNc2ccccc2F)c2cccnc12 [SID 852641]							IC50 (JMJD2A [2]): 8.2 µM; IC50 (PHD2 (catalytic domain)): 14.4 µM; IC50 (JMJD2E [3]): 6 µM; IC50 (JMJD2E (KDM4E); Figure 3, substituted 8-hydroxyquinolines against JMJD2E, read-out: IC50 /μM (qHTS IC50, FDH-coupled assay)): 1.1 µM; IC50 (FIH): 19.6 µM
O=C(O)c1ccc(O)c2ncccc12 [SID 85736331, 5-carboxy-8-hydroxyquinoline]							IC50 [4]: 292 µM; IC50 (FIH): 20.5 µM
Oc1ccc(NCc2ccccc2OCc2ccccc2F)cc1 [compound 17385881]	Poor quality curve	3.087	8.91	8.91	5.01		IC50 [5]: 14.1 µM
CCOc1cc(CNc2ccc(N3CCCCC3)cc2)cc(Br)c1OCC(=O)NC(C)(C)C [compound 22412645]	Inactive	~ 104.5	3.16	39.8	3.16		qHTS Data: jmjd2e fas2.5um Curve comment (JMJD2E [6]; low iron 2.5 µM FAS): Inconclusive
CCOc1c(Cl)cc(CNc2ccc(N3CCCC3)cc2)cc1OC [compound 24795526]	Inactive	~ 11904	19.9	3.98	8.91		qHTS Data: jmjd2e fas20um CurveClass (JMJD2E [6]; high iron): Poor quality curve
O=c1nc(N/N=C/c2ccccn2)cn[nH]1 [compound 24822918]	Inconclusive	97.61	15.8	7.08	10	~7.05	
O=c1c2ccccc2sn1-c1nccs1 [compound 24830882]	Inactive	82.19	3.98	7.94	7.94	10.2	
COc1cccc(/C=N/NC(=O)CNC(=O)COc2cccc(C)c2)c1O [compound 26660958]	Inactive	89.52		4.47	2.82	10.2	qHTS Data: jmjd2e fas20um CurveClass (JMJD2E [6]; high iron): Inconclusive
COc1cccc(/C=N/NC(=O)CNC(=O)CCc2ccccc2)c1O [compound 26660959]	Inconclusive	88.08	12.6	7.08	3.98	8.6	IC50 [5]: 39.8 µM
C(=N\Nc1nc(-c2ccccn2)nc2ccccc12)/c1ccccc1 [compound 26666061]	Inactive		10	22.4	8.91		MALDI-TOF Data: Comments (JMJD2E [3]; Table S1): solubility problems
C=CCn1c(SCC(=O)c2ccc(O)c(O)c2)nnc1-c1cccnc1 [compound 26671532]	Poor quality curve	91.73	1.26	7.94	3.55	11.8	IC50 [5]: 14.1 µM
COc1ccc(/C=C/C(=O)NC(=S)NNC(=O)c2cnccn2)cc1 [compound 26725781]	Inactive	94.6	8.91	10	7.94	3.5	
Nc1ccc2nc3c(=O)n(CCc4ccccc4)c(=O)[nH]c3nc2c1 [compound 26726384]	Inactive	51.81	14.1	7.08	1.78	141	qHTS Data: jmjd2e fas2.5um Curve comment (JMJD2E [6]; low iron 2.5 µM FAS): Poor quality curve
CN(C)C1C(=O)C(C(N)=O)=C(O)[C@@]2(O)C(=O)C3=C(O)c4c(O)cccc4[C@@](C)(O)C3[C@H](O)C12 (some centres unmarked) [compound 50105558]	Poor quality curve	94.16	8.91	14.1	2	54.8	IC50 [5]: 3.55 µM
Br.Oc1ccc(C2CNCCc3c2cc(O)c(O)c3Cl)cc1 (centres unmarked) [compound 50106351]	Inactive	93.35	7.94	6.31	25.1	8.4	
NC(Cc1cc(O)c(O)cc1O)C(=O)O (centres unmarked) [compound 50106437]	Inactive		2.24	7.94	12.6		MALDI-TOF Data: Comments (JMJD2E [3]; Table S1): solubility problems
COC(=O)c1ccnc(C(=O)OC)c1 [dimethyl-2,4-PDCA]							JMJD2A demethylase activity remaining (JMJD2A [1]; 1mM treatment): approximately 35%
